Measured values from patent US12577248B2, “Substituted [1,2,4]triazolo[1,5-a]pyrazines as spleen tyrosine kinase inhibitors” (NANJING RUIJIE PHARMA CO., LTD., priority 2020, dated 2026).

How the values were obtained:
SYK kinase = SYK kinase (Homo sapiens, UniProt P43405); experiment: SYK kinase assay (HTRF KinEASE-TK); type: biochemical; settings: class symbols, read-out: Syk inhibition IC50
Procedure: A homogeneous time-resolved fluorescence (HTRF) assay was performed to assess the potential inhibitory effect of compounds on SYK kinase. The HTRF KinEASE-TK kit (Cisbio) was used. During the step, kinase will phosphorylate the substrate, and the resulting fluorescence signal is proportional to the phosphorylation level. The assay was performed in the following steps: First, the testing compounds were diluted 1:3 in succession in DMSO. The 1× kinase buffer contained 1 volume of 5× enzymatic buffer with 4 volumes of distilled water, 5 mM MgCl2, 1 mM MnCl2, and 1 mM DTT. The assays were assembled in 384 well plates (784075, Greiner) where 10 nl of compound solutions were added into each well, and the plates were centrifuged at 1000 g for 1 min. Then, 5 μl of 2×SYK in 1× kinase buffer were added to each well. The plates were centrifuged at 1000 g for 30 s and then incubated at room temperature for 10 min. The reaction was initiated by adding […] of premixed 2×TK-substrate-biotin and ATP mixture in 1× kinase buffer to the assay plates. The plates were centrifuged at 1000 g for 30 s and incubated at room temperature for 30 min. Phosphorylation was detected by adding 5 μl of 4×Sa-XL 665 in HTRF detection buffer into each well of the assay plates. The plates were centrifuged plates at 1000 g for 30 sec, and then incubated at room temperature for 1 h. Finally, the plates were read on an Envision 2104 plate reader (PerkinElmer) and the fluorescence signal was measured at 615 nm (Cryptate) and 665 nm (XL665).
A ratio (665/615 nm) was calculated for each well. The inhibition ratio was calculated as follow: […]
IC50 was calculated by fitting % Inhibition values and log of compound concentrations to nonlinear regression (dose response−variable slope) with GraphPad 6.0.

Ba/F3-TEL-SYK cells = molecular target: T1, Ba/F3-TEL-SYK cells (Homo sapiens, UniProt P43405); experiment: Ba/F3-TEL-SYK cell-based assay (CellTiter-Glo proliferation); settings: 72 hr, read-out: BaF3 Cell assay IC50
T1 construct: fused on or other part: N-terminal part of TEL (ETV6) with its oligomerising PNT/SAM domain, fused before the SYK part that carries the kinase domain; P41212 (Transcription factor ETV6)
Procedure: CellTiter-Glo® Luminescent Cell Viability Assay was used to determine the number of viable cells in culture based on quantitation of the ATP present, as an indicator of metabolically active cells. The assay was performed in the following steps: First, the testing compounds were dissolved in DMSO to make a stock solution. The stocks (10 mM) were then diluted to varying concentrations: […], 0.305 and 0.102 μM. An aliquot of 0.2 μl of diluted compounds were added to the 384 well assay plate. Second, added 40 μl of cell suspension with 800 Ba/F3-TEL-SYK cells into each well and incubated the plate at 37° C., 5% CO2 for 72 hr. Then, added 20 μl Cell Titer-Glo Reagent into each well of the cell culture plate. Mixed the contents for 2 min on an orbital shaker to lyse cells, and rest the plate at room temperature for 30 min. Finally, luminescence values were obtained using an Envision 2104 plate reader (PerkinElmer) and calculated the average data and Standard Deviation (SD) of DMSO and Reference (GS-9973, 1 μM) as high control and low control. To determine the IC50 value, fit the data using non-linear regression equation.

[1] = In vivo pharmacokinetic analysis, single dose, ICR mice; settings: mouse, male, plasma; for AUC(0-inf) / AUC(0-t) / Cmax / Tmax / half-life: single dose; for bioavailability: PO 10 mg/kg vs IV 2 mg/kg, read-out: F % (bioavailability)
Procedure: This is a single-dose study in ICR mice (male, n=9/administration) with intravenous and oral administration. Compound concentrations in plasma were measured and calculated for pharmacokinetic (PK) analysis via WinNonLin 6.4.

Row | IC50 (SYK kinase) [nM] | GI50 (Ba/F3-TEL-SYK cells) [nM] | AUC(0-inf) ([1]; IV Administration (2 mg/kg)) [ng·h/mL] | AUC(0-t) ([1]; IV Administration (2 mg/kg)) [ng·h/mL] | Cmax ([1]; IV Administration (2 mg/kg)) [ng/mL] | Tmax ([1]; IV Administration (2 mg/kg)) [min] | half-life ([1]; IV Administration (2 mg/kg)) [min] | AUC(0-inf) ([1]; PO Administration (10 mg/kg)) [ng·h/mL] | AUC(0-t) ([1]; PO Administration (10 mg/kg)) [ng·h/mL] | Cmax ([1]; PO Administration (10 mg/kg)) [ng/mL] | Tmax ([1]; PO Administration (10 mg/kg)) [min] | half-life ([1]; PO Administration (10 mg/kg)) [min] | bioavailability [1] [%] | SMILES
1 | ≤ 50 | 50 to 500 | 11400 | 11200 | 8810 | 4.8 | 99 | 28500 | 28500 | 2160 | 240 | 100 | 50.8 | c1nc2c(Nc3ccc(N4CCOCC4)cc3)nc(-c3ccc4cc[nH]c4c3)cn2n1 [I10, 6-(1H-indol-6-yl)-N-(4-morpholinophenyl)-[1,2,4]triazolo[1,5-a]pyrazin-8-amine]
2 | ≤ 50 | ≤ 50 | 1680 | 1680 | 5110 | 4.8 | 42.6 | 902 | 895 | 2570 | 15 | 89.4 | 10.7 | COc1cc(Nc2nc(-c3ccc4cc[nH]c4c3)cn3ncnc23)ccc1N1CCN(C2COC2)CC1 [I58, 6-(1H-indol-6-yl)-N-(3-methoxy-4-(4-(oxetan-3-yl)piperazin-1-yl)phenyl)-[1,2,4]triazolo[1,5-a]pyrazin-8-amine]
3 | ≤ 50 | ≤ 50 | 1010 | 1010 | 1870 | 4.8 | 34.2 | 2260 | 1960 | 696 | 15 | 168 | 38.9 | COc1cc(Nc2nc(-c3ccc4cc[nH]c4c3)cn3ncnc23)ccc1N1CCOCC1 [I2, 6-(1H-indol-6-yl)-N-(3-methoxy-4-morpholinophenyl)-[1,2,4]triazolo[1,5-a]pyrazin-8-amine]
4 | ≤ 50 | ≤ 50 | 429 | 428 | 1320 | 4.8 | 12.6 | 125 | 115 | 108 | 15 | 28.8 | 5.38 | COc1cc(Nc2nc(-c3ccc4cn[nH]c4c3)cn3ncnc23)ccc1N1CCC(C)(O)CC1 [I22, 1-(4-((6-(1H-indazol-6-yl)-[1,2,4]triazolo[1,5-a]pyrazin-8-yl)amino)-2-methoxyphenyl)-4-methylpiperidin-4-ol]
5 | ≤ 50 | ≤ 50 | 500 | 499 | 1640 | 4.8 | 39 | 151 | 145 | 268 | 15 | 46.8 | 5.81 | COc1cc(Nc2nc(-c3ccc4cn[nH]c4c3)cn3ncnc23)ccc1N1CCN(C2COC2)CC1 [I54, 6-(1H-indazol-6-yl)-N-(3-methoxy-4-(4-(oxetan-3-yl)piperazin-1-yl)phenyl)-[1,2,4]triazolo[1,5-a]pyrazin-8-amine]
6 | ≤ 50 | 50 to 500 | – | – | – | – | – | – | – | – | – | – | – | O=C1COc2cc(-c3cn4ncnc4c(Nc4ccc(N5CCOCC5)cc4)n3)ccc2N1 [I29, 7-(8-((4-morpholinophenyl)amino)-[1,2,4]triazolo[1,5-a]pyrazin-6-yl)-2H-benzo[b][1,4]oxazin-3(4H)-one]
7 | ≤ 50 | ≤ 50 | 2300 | 2290 | 3960 | 4.8 | 590 | 7370 | 7330 | 7520 | 15 | 265 | 64.2 | c1nc2c(Nc3ccc(N4CCN(C5COC5)CC4)cc3)nc(-c3ccc4cn[nH]c4c3)cn2n1 [I53, 6-(1H-indazol-6-yl)-N-(4-(4-(oxetan-3-yl)piperazin-1-yl)phenyl)-[1,2,4]triazolo[1,5-a]pyrazin-8-amine]
8 | ≤ 50 | ≤ 50 | 4670 | 4670 | 7360 | 4.8 | 43.2 | 14500 | 14500 | 14400 | 15 | 196 | 62 | c1nc2c(Nc3ccc(N4CCN(C5COC5)CC4)cc3)nc(-c3ccc4cc[nH]c4c3)cn2n1 [I57, 6-(1H-indol-6-yl)-N-(4-(4-(oxetan-3-yl)piperazin-1-yl)phenyl)-[1,2,4]triazolo[1,5-a]pyrazin-8-amine]
9 | 50 to 500 | 500 to 5000 | – | – | – | – | – | – | – | – | – | – | – | COc1cc(Nc2nc(-c3cncc(N)n3)cn3ncnc23)ccc1N1CCN(C2COC2)CC1 [I56, 6-(6-aminopyrazin-2-yl)-N-(3-methoxy-4-(4-(oxetan-3-yl)piperazin-1-yl)phenyl)-[1,2,4]triazolo[1,5-a]pyrazin-8-amine]
10 | 50 to 500 | 500 to 5000 | – | – | – | – | – | – | – | – | – | – | – | CC(C)N1C[C@@H]2C[C@@H]1CN2c1ccc(Nc2nc(-c3ccc4[nH]ncc4c3)cn3ncnc23)cc1 [I69, 6-(1H-indazol-5-yl)-N-(4-((1S,4R)-5-isopropyl-2,5-diazabicyclo[2.2.1]heptan-2-yl)phenyl)-[1,2,4]triazolo[1,5-a]pyrazin-8-amine]
11 | ≤ 50 | 50 to 500 | – | – | – | – | – | – | – | – | – | – | – | COc1cc(Nc2nc(-c3ccc4c(c3)N=CC4)cn3ncnc23)ccc1N1CC2(COC2)C1 [I62, 6-(3H-indol-6-yl)-N-(3-methoxy-4-(2-oxa-6-azaspiro[3.3]heptan-6-yl)phenyl)-[1,2,4]triazolo[1,5-a]pyrazin-8-amine]
12 | ≤ 50 | 50 to 500 | – | – | – | – | – | – | – | – | – | – | – | COc1cc(Nc2nc(-c3ccc4cn[nH]c4c3)cn3ncnc23)ccc1N1CCN(C(C)C)CC1 [I17, 6-(1H-indazol-6-yl)-N-(4-(4-isopropylpiperazin-1-yl)-3-methoxyphenyl)-[1,2,4]triazolo[1,5-a]pyrazin-8-amine]
13 | ≤ 50 | 50 to 500 | – | – | – | – | – | – | – | – | – | – | – | CCOc1cc(Nc2nc(-c3ccc4cn[nH]c4c3)cn3ncnc23)ccc1N1CCOCC1 [I73, N-(3-ethoxy-4-morpholinophenyl)-6-(1H-indazol-6-yl)-[1,2,4]triazolo[1,5-a]pyrazin-8-amine]
14 | 50 to 500 | 50 to 500 | – | – | – | – | – | – | – | – | – | – | – | COc1cc(Nc2nc(-c3ccc4c(c3)OC(C)(C)C(=O)N4)cn3ncnc23)ccc1N1CCOCC1 [I26, 7-(8-((3-methoxy-4-morpholinophenyl)amino)-[1,2,4]triazolo[1,5-a]pyrazin-6-yl)-2,2-dimethyl-2H-benzo[b][1,4]oxazin-3(4H)-one]
15 | ≤ 50 | 50 to 500 | – | – | – | – | – | – | – | – | – | – | – | CCOc1cc(Nc2nc(-c3ccc4cc[nH]c4c3)cn3ncnc23)ccc1N1CC2CC1CN2C1COC1 (stereo not drawn) [I79, N-(3-ethoxy-4-(5-(oxetan-3-yl)-2,5-diazabicyclo[2.2.1]heptan-2-yl)phenyl)-6-(1H-indol-6-yl)-[1,2,4]triazolo[1,5-a]pyrazin-8-amine]
16 | ≤ 50 | 50 to 500 | – | – | – | – | – | – | – | – | – | – | – | O=S1(=O)CCN(c2ccc(Nc3nc(-c4ccc5cn[nH]c5c4)cn4ncnc34)cc2)CC1 [I25, 4-(4-((6-(1H-indazol-6-yl)-[1,2,4]triazolo[1,5-a]pyrazin-8-yl)amino)phenyl)thiomorpholine 1,1-dioxide]
17 | ≤ 50 | 500 to 5000 | – | – | – | – | – | – | – | – | – | – | – | Nc1cncc(-c2cn3ncnc3c(Nc3ccc(N4CCN(C5COC5)CC4)cc3)n2)n1 [I55, 6-(6-aminopyrazin-2-yl)-N-(4-(4-(oxetan-3-yl)piperazin-1-yl)phenyl)-[1,2,4]triazolo[1,5-a]pyrazin-8-amine]
